# Test results: patent US8933224B2, “Triazine derivatives” (Pfizer Inc., priority 2013, dated 2015)
# Target: rat PDE10 enzyme (Rattus norvegicus (Rat), UniProt Q9QYJ6)
# Assay: PDE10 scintillation proximity assay (SPA), inhibition of rat PDE10 enzyme activity
# Format: biochemical
# Conditions: geometric mean of 2-4 determinations unless otherwise indicated (b: ≧5 determinations; c: single determination)
# Method: PDE10 activity was measured using a scintillation assay (SPA-based method) similar to that previously described by Seeger, T. F. et al., Brain Research 985 (2003) 113-126. The compounds' relative activity as PDE10 inhibitors was investigated by assaying a fixed amount of enzyme in the presence of the test compound and low substrate concentration (cAMP) such that an IC50 could be determined. […] The assay is performed in a 384-well format with 50 μL assay buffer (50 mM TRIS pH 7.5; 1.3 mM MgCl2; 0.01% Brij) containing enough PDE10 to convert ˜20% of 20 nM ^3H-cAMP, and a range of inhibitors. Reactions are incubated for 30 minutes at 25° C. The addition of 20 μL of 8 mg/ml yttrium silicate SPA beads (PerkinElmer) stops the reaction. The plates are sealed (TopSeal, PerkinElmer) and the beads are allowed to settle for 8 hrs, after which they are read on the Trilux Microbeta overnight. ^1Rat enzyme preparation:^2Human enzyme preparation:
# The recombinant Bacmid was isolated and used to transfect sf9 insect cells to generate a viral stock. To generate cell paste for purification, sf21 cells were infected with the virus stock and cells were harvested 72 hours after infection as described in Seeger, T. F. et al., Brain Research 985 (2003) 113-126. Insect cell paste was lysed and after centrifugation, the supernatant was chromatographed on Ni-NTA agarose (Qiagen) followed by Mono Q (GE Healthcare Life Sciences) as described in Seeger, T. F. et al., Brain Research 985 (2003) 113-126.
# Chain of rat PDE10 enzyme (Q9QYJ6 24-794): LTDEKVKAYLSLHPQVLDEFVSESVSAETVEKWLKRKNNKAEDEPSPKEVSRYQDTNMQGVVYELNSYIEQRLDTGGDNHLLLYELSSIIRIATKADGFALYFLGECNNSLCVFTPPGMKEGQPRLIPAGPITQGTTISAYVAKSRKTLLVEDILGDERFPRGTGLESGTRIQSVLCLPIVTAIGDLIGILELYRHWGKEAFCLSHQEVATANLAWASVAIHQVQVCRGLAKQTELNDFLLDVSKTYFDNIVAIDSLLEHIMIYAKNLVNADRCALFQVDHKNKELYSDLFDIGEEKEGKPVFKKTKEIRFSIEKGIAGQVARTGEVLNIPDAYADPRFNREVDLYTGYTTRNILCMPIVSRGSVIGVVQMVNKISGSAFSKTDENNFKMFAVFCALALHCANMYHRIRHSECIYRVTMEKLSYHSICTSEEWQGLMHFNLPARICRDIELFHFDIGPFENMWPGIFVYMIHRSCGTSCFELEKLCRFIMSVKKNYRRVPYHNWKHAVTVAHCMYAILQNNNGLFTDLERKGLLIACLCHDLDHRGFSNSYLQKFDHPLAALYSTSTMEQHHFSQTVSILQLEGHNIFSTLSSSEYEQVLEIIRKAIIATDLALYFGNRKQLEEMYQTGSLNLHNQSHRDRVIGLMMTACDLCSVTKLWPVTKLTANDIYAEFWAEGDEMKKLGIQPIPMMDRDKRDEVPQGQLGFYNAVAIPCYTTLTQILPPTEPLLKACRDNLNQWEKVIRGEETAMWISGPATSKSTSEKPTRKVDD
row,SMILES,IC50
1,"Cc1nc(-c2ccccc2F)c2c(N3CCn4ncc(C(F)(F)F)c4C3)ncnn12 [Example 109, 5-(2-fluorophenyl)-7-methyl-4-[3-(trifluoromethyl)-6,7-dihydropyrazolo[1,5-a]pyrazin-5(4H)-yl]imidazo[5,1-f][1,2,4]triazine]",1.73 nM
2,"Cc1nc(-c2ccccc2F)c2c(N3CCc4ncncc4C3)ncnn12 [Example 110, 6-[5-(2-fluorophenyl)-7-methylimidazo[5,1-f][1,2,4]triazin-4-yl]-5,6,7,8-tetrahydropyrido[4,3-d]pyrimidine]",20 nM
3,"Cc1nc2c(s1)CN(c1ncnn3c(C)nc(-c4ccccc4F)c13)CC2 [Example 114, 5-(2-fluorophenyl)-7-methyl-4-(2-methyl-6,7-dihydro[1,3]thiazolo[5,4-c]pyridin-5(4H)-yl)imidazo[5,1-f][1,2,4]triazine]",1.49 nM
4,"Cc1nn(C)c2c1CN(c1ncnn3c(C)nc(-c4ccccc4F)c13)CC2 [Example 115, 4-(1,3-dimethyl-1,4,6,7-tetrahydro-5H-pyrazolo[4,3-c]pyridin-5-yl)-5-(2-fluorophenyl)-7-methylimidazo[5,1-f][1,2,4]triazine]",0.834 nM
5,"Cc1nc(-c2ccccc2F)c2c(N3Cc4ccccc4CC3C)ncnn12 (stereo not drawn) [Example 116, 2-[5-(2-fluorophenyl)-7-methylimidazo[5,1-f][1,2,4]triazin-4-yl]-3-methyl-1,2,3,4-tetrahydroisoquinoline]",8.01 nM
6,CCc1nn(C)c2c1CN(c1ncnn3c(C)nc(-c4ccccc4F)c13)CC2 [Example 117],0.336 nM
7,"CCc1nn(C)c2c1CN(c1ncnn3c(C)nc(-c4ccc(F)cc4Cl)c13)CC2 [Example 119, 5-(2-chloro-4-fluorophenyl)-4-(3-ethyl-1-methyl-1,4,6,7-tetrahydro-5H-pyrazolo[4,3-c]pyridin-5-yl)-7-methylimidazo[5,1-f][1,2,4]triazine]",0.519 nM
8,"CCc1c2c(nn1C)CCN(c1ncnn3c(C)nc(-c4ccc(F)cc4Cl)c13)C2 [Example 120, 5-(2-chloro-4-fluorophenyl)-4-(3-ethyl-2-methyl-2,4,6,7-tetrahydro-5H-pyrazolo[4,3-c]pyridin-5-yl)-7-methylimidazo[5,1-f][1,2,4]triazine]",0.233 nM
9,"Cc1nn(C)c2c1CN(c1ncnn3c(C)nc(-c4ccc(F)cc4Cl)c13)CC2 [Example 121, 5-(2-chloro-4-fluorophenyl)-4-(1,3-dimethyl-1,4,6,7-tetrahydro-5H-pyrazolo[4,3-c]pyridin-5-yl)-7-methylimidazo[5,1-f][1,2,4]triazine]",1.35 nM
10,"Cc1nc(-c2ccc(F)cc2Cl)c2c(N3CCc4cnn(C)c4C3)ncnn12 [Example 122, 5-(2-chloro-4-fluorophenyl)-7-methyl-4-(1-methyl-1,4,5,7-tetrahydro-6H-pyrazolo[3,4-c]pyridin-6-yl)imidazo[5,1-f][1,2,4]triazine]",2.65 nM
11,"CCOc1nc(C)nc2c1CN(c1ncnn3c(C)nc(-c4ccccc4F)c13)CC2 [Example 123, 4-ethoxy-6-[5-(2-fluorophenyl)-7-methylimidazo[5,1-f][1,2,4]triazin-4-yl]-2-methyl-5,6,7,8-tetrahydropyrido[4,3-d]pyrimidine]",1.43 nM
12,"Cc1nc2c(c(=O)n1C)CN(c1ncnn3c(C)nc(-c4ccccc4F)c13)CC2 [Example 124, 6-[5-(2-fluorophenyl)-7-methylimidazo[5,1-f][1,2,4]triazin-4-yl]-2,3-dimethyl-5,6,7,8-tetrahydropyrido[4,3-d]pyrimidin-4(3H)-one]",2.71 nM
13,"Cc1nc2c(c(OC(F)F)n1)CN(c1ncnn3c(C)nc(-c4ccccc4F)c13)CC2 [Example 125, 4-(difluoromethoxy)-6-[5-(2-fluorophenyl)-7-methylimidazo[5,1-f][1,2,4]triazin-4-yl]-2-methyl-5,6,7,8-tetrahydropyrido[4,3-d]pyrimidine]",6.4 nM
14,"CCn1c(C)nc2c(c1=O)CN(c1ncnn3c(C)nc(-c4ccccc4F)c13)CC2 [Example 126, 3-ethyl-6-[5-(2-fluorophenyl)-7-methylimidazo[5,1-f][1,2,4]triazin-4-yl]-2-methyl-5,6,7,8-tetrahydropyrido[4,3-d]pyrimidin-4(3H)-one]",1.19 nM
15,"CCc1nc(C2CC2)nc2c1CN(c1ncnn3c(C)nc(-c4ccccc4F)c13)CC2 [Example 136, 2-cyclopropyl-4-ethyl-6-[5-(2-fluorophenyl)-7-methylimidazo[5,1-f][1,2,4]triazin-4-yl]-5,6,7,8-tetrahydropyrido[4,3-d]pyrimidine]",0.265 nM
16,"Cc1ccc2c(n1)CCN(c1ncnn3c(C)nc(-c4ccccc4F)c13)C2 [Example 138, 6-[5-(2-fluorophenyl)-7-methylimidazo[5,1-f][1,2,4]triazin-4-yl]-2-methyl-5,6,7,8-tetrahydro-1,6-naphthyridine]",0.49 nM
17,"Cc1nc(-c2ccccc2F)c2c(N3CCc4nc(C5CC5)nc(OC(F)F)c4C3)ncnn12 [Example 140, 2-cyclopropyl-4-(difluoromethoxy)-6-[5-(2-fluorophenyl)-7-methylimidazo[5,1-f][1,2,4]triazin-4-yl]-5,6,7,8-tetrahydropyrido[4,3-d]pyrimidine]",1.5 nM

# Now from value to molecule:
row,IC50,SMILES
1,23 nM,"Cc1nc([C@H]2CCOC2)c2c(N3CCc4nn(C(C)C)cc4C3)ncnn12 [Example 100, 7-methyl-4-[2-(propan-2-yl)-2,4,6,7-tetrahydro-5H-pyrazolo[4,3-c]pyridin-5-yl]-5-[(3R)-tetrahydrofuran-3-yl]imidazo[5,1-f][1,2,4]triazine]"
2,0.283 nM,"Cc1c2c(nn1C)CCN(c1ncnn3c(C)nc([C@@H]4CCOC4)c13)C2 [Example 101, 4-(2,3-dimethyl-2,4,6,7-tetrahydro-5H-pyrazolo[4,3-c]pyridin-5-yl)-7-methyl-5-[(3S)-tetrahydrofuran-3-yl]imidazo[5,1-f][1,2,4]triazine]"
3,3.94 nM,"Cc1nc(C2CCOCC2)c2c(N3CCn4ncc(C(F)(F)F)c4C3)ncnn12 [Example 102, 7-methyl-5-(tetrahydro-2H-pyran-4-yl)-4-[3-(trifluoromethyl)-6,7-dihydropyrazolo[1,5-a]pyrazin-5(4H)-yl]imidazo[5,1-f][1,2,4]triazine]"
4,5.13 nM,"Cc1nn(C)c2c1CN(c1ncnn3c(C)nc(C4CCOCC4)c13)CC2 [Example 103, 4-(1,3-dimethyl-1,4,6,7-tetrahydro-5H-pyrazolo[4,3-c]pyridin-5-yl)-7-methyl-5-(tetrahydro-2H-pyran-4-yl)imidazo[5,1-f][1,2,4]triazine]"
5,1.08 nM,"Cc1nc(C2CCOCC2)c2c(N3CCc4nn(C)c(C(C)C)c4C3)ncnn12 [Example 104, 7-methyl-4[2-methyl-3-(propan-2-yl)-2,4,6,7-tetrahydro-5H-pyrazolo[4,3-c]pyridin-5-yl]-5-(tetrahydro-2H-pyran-4-yl)imidazo[5,1-f][1,2,4]triazine]"
6,1.88 nM,"CCc1c2c(nn1C)CCN(c1ncnn3c(C)nc(C4CCOCC4)c13)C2 [Example 105, 4-(3-ethyl-2-methyl-2,4,6,7-tetrahydro-5H-pyrazolo[4,3-c]pyridin-5-yl)-7-methyl-5-(tetrahydro-2H-pyran-4-yl)imidazo[5,1-f][1,2,4]triazine]"
7,1.44 nM,"CCc1nn(C)c2c1CN(c1ncnn3c(C)nc(C4CCOCC4)c13)CC2 [Example 106, 4-(3-ethyl-1-methyl-1,4,6,7-tetrahydro-5H-pyrazolo[4,3-c]pyridin-5-yl)-7-methyl-5-(tetrahydro-2H-pyran-4-yl)imidazo[5,1-f][1,2,4]triazine]"
8,0.959 nM,"CCc1n[nH]c2c1CN(c1ncnn3c(C)nc(C4CCOCC4)c13)CC2 [Example 107, 4-(3-ethyl-1,4,6,7-tetrahydro-5H-pyrazolo[4,3-c]pyridin-5-yl)-7-methyl-5-(tetrahydro-2H-pyran-4-yl)imidazo[5,1-f][1,2,4]triazine]"
9,0.902 nM,"Cc1nc(C2CCOCC2)c2c(N3CCc4[nH]nc(C(C)C)c4C3)ncnn12 [Example 108, 7-methyl-4-(3-(propan-2-yl)-1,4,6,7-tetrahydro-5H-pyrazolo[4,3-c]pyridin-5-yl]-5-(tetrahydro-2H-pyran-4-yl)imidazo[5,1-f][1,2,4]triazine]"
10,0.147 nM,"CCc1c2c(nn1C)CCN(c1ncnn3c(C)nc(-c4ccccc4F)c13)C2 [Example 112, 4(3-ethyl-2-methyl-2,4,6,7-tetrahydro-5H-pyrazolo[4,3-c]pyridin-5-yl)-5-(2-fluorophenyl)-7-methylimidazo[5,1-f][1,2,4]triazine]"
11,0.638 nM,Cc1c2c(nn1C)CCN(c1ncnn3c(C)nc(-c4ccccc4F)c13)C2 [Example 113]
12,0.0998 nM,"CCn1c(C)nc2c(c1=O)CN(c1ncnn3c(C)nc([C@@H]4CCOC4)c13)CC2 [Example 129, 3-ethyl-2-methyl-6-{7-methyl-5-[(3S)-tetrahydrofuran-3-yl]imidazo[5,1-f][1,2,4]triazin-4-yl}-5,6,7,8-tetrahydropyrido[4,3-d]pyrimidin-4(3H)-one]"
13,0.142 nM,"Cc1nc([C@@H]2CCOC2)c2c(N3CCc4nc(C5CC5)nc(OC(F)F)c4C3)ncnn12 [Example 141, 2-cyclopropyl-4-(difluoromethoxy)-6-{7-methyl-5-[(3S)-tetrahydrofuran-3-yl]imidazo[5,1-f][1,2,4]triazin-4-yl}-5,6,7,8-tetrahydropyrido[4,3-d]pyrimidine]"
